How the values were obtained:
[1] = Solubility of the isolated DHA powder (physical characterisation); format: physicochemical; settings: solvent chloroform; isolated DHA free fatty acid powder
Protocol: Take 1 liter of fish oil. Maintain temperature to 40-45° C. To it add 1-2% methanolic/ethanolic/propanolic/butanolic sodium or potassium hydroxide 1 liter. Stir for ½ an hour. It separates two layers, discard upper layer which contains lower fatty acids and other impurities. Then, to the lower layer add 750 ml of acetone or ethyl or methyl ketone and stir for one hr and keep aside for ½ hour to precipitate DHA. Filter it and wash 2-3 times with equal quantity of acetone. Evaporate and recover the solvent with temperature not exceeding 40 degree C. This leads to drying of the precipitated DHA at room temperature to form the crystalline mass. The same is passed through the sieve to obtain a dry, directly compressible, free flowing powder of polyunsaturated free fatty acid DHA thereof. The DHA is creamish or off-white crystalline solid powder having melting point 60-62 degree C.
Cool fish oil 12 degree C. to solidify all fatty acids in waxy form and separate it from fish oil. Maintain temperature to 40-45° C. In 1 kg waxy fatty acid, add 1 litre ethanolic or methanolic or propanolic or butanolic sodium or potassium hydroxide 1-2% and stir it for ½ an hour. The solution separates the oily layer which contains lower fatty acids and other impurities then, add ethyl acetate:acetone 90:10 to 10:90 to above solvent. It precipitates DHA in solid form. […]

[2] = Stability of DHA powder at room temperature; format: physicochemical; settings: powder form, no antioxidants added

- Solubility [1]: freely soluble in chloroform
- Stability [2]: stable at room temperature
Compound: CC/C=C\C/C=C\C/C=C\C/C=C\C/C=C\C/C=C\CCC(=O)O [DHA, Docosahexaenoic acid]

Reference: US20140018558A1, “DOCOSAHEXAENOIC ACID (DHA) AS POLYUNSATURATED FREE FATTY ACID IN ITS DIRECTLY COMPRESSIBLE POWDER FORM AND METHOD OF ISOLATION THEREOF” (priority 2011, published 2014)
